Data published in US20230273220A1, “METHODS FOR PREDICTION, DETECTION AND MONITORING OF SUBSTANCEUSE DISORDERS AND/OR AN INFECTION” (NATIONAL HEALTH RESEARCH INSTITUTES, priority 2020, published 2023).

Legend:
[1] = Plasma nicotine metabolite cotinine concentration in MMT patients subgrouped by age; assay type: in vivo, human
[2] = Self-reported skin irritation after taking methadone in MMT patients; details: 15 of 344 MMT patients
Experimental: The inclusion criteria included subjects aged 18 or above, having undergone MMT for at least three months with regular attendance for the past seven days, and a methadone dosage adjustment of not more than 10 mg in the past seven days. Exclusion criteria included co-morbidity with physical and mental disorders requiring immediate treatment and pregnancy.

Structure (SMILES) | Plasma cotinine concentration ([1]; MMT subjects age <45, n=275, mean ± SD) [ng/mL] | Plasma cotinine concentration ([1]; MMT subjects age ≥45, n=69, mean ± SD) [ng/mL] | Patients self-reporting skin irritation after taking methadone [2]
CN1C(=O)CC[C@H]1c1cccnc1 [Cotinine] | 384.20 ± 184.90 | 439.65 ± 203.44 | 
CCC(=O)C(CC(C)N(C)C)(c1ccccc1)c1ccccc1 (stereo not drawn) [R,S-methadone] |  |  | around 4.4%
